Results on three compounds are retold here after ChEMBL document CHEMBL1201862, “PubChem BioAssay data set” (2004).

Assay [1] deals with MDCK. Briefly: antiviral activity against H1N1 influenza, dose response, cell-based, strain KY180 (AID 540254). In kind it is functional. The conditions noted are these: Canis lupus familiaris.
The test system of a further assay is Vero. In words: Vero E6 cell cytotoxicity, dose response, cytotoxicity control (AID 540298). The format is functional. The settings on record: Chlorocebus sabaeus.
Assay [2] has as its system MDCK. Briefly: MDCK cell cytotoxicity, dose response, cytotoxicity control (AID 540296). The settings on record: Canis lupus familiaris. The format is functional.
Assay [3] has as its system MDCK. In words: antiviral activity against H1N1 influenza, dose response, cell-based, strain KY136 (AID 540257). The format is functional. The settings on record: Canis lupus familiaris.
The target of assay [4] is T1, Replicative DNA helicase DnaB (Mycobacterium tuberculosis, UniProt P9WMR3).
T1 sequence (P9WMR3 whole entry): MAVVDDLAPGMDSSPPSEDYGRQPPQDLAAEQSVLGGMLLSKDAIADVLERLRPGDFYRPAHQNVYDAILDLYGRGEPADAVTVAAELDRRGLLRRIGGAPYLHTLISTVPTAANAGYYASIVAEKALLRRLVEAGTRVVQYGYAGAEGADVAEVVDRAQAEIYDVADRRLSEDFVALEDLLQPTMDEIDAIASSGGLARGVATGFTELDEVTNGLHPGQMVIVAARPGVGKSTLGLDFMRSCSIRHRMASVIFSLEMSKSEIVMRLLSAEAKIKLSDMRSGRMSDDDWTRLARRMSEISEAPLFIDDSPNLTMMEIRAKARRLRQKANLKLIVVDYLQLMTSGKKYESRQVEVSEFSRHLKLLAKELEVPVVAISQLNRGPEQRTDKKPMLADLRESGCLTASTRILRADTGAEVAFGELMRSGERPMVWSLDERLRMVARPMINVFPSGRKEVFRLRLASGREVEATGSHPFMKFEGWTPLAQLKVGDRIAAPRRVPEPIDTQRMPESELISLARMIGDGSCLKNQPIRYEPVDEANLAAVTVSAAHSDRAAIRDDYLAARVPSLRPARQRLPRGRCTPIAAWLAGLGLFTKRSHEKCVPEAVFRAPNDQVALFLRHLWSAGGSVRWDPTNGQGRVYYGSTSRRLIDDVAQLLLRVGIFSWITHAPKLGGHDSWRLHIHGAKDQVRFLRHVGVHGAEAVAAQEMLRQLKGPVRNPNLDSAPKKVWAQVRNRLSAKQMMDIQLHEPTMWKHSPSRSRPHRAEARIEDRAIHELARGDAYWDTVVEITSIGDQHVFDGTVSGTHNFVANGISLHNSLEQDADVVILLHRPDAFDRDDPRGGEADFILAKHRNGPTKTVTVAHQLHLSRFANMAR
Briefly: DnaB intein splicing inhibitors, dose response, biochemical, cell-free fluorescence (AID 449749). In kind it is functional.

A further assay concerns the target Keap1/Nrf2 (Homo sapiens, UniProt Q14145). Briefly: Keap1-Nrf2 protein-protein interaction inhibitors, dose response, biochemical, fluorescence polarization, cherry-picked samples (AID 588683). In general terms: Fluorescence polarisation rises when a labelled molecule tumbles more slowly, as on binding a larger partner.
For a further assay, the target named is T2, Protein RecA (Mycobacterium tuberculosis, UniProt P9WHJ3).
T2 sequence (P9WHJ3 whole entry): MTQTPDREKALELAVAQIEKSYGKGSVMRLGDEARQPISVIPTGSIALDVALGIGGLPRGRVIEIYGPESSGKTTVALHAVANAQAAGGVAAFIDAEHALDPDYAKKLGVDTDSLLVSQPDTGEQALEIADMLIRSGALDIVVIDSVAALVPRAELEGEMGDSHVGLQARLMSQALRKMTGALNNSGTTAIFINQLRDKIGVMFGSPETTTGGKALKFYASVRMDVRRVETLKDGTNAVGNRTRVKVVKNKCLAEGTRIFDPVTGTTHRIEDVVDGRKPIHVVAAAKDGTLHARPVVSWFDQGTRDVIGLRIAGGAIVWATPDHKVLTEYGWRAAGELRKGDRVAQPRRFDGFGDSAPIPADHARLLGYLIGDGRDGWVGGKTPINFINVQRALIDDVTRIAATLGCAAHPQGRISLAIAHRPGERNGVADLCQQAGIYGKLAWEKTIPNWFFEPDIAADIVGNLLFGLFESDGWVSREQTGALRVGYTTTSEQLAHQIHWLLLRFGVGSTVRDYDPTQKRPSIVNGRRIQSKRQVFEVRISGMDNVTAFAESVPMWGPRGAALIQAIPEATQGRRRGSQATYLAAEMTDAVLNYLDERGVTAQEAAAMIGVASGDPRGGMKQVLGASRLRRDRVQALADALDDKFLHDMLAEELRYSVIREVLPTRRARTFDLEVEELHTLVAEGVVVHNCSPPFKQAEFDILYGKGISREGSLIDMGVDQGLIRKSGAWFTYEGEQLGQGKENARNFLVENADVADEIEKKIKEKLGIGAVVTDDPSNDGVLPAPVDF
Briefly: Fluorescence Cell-Free Homogeneous Dose Retest to Identify Inhibitors of RecA-Intein Splicing Activity. [Related pubchem assays (depositor defined):AID2097, AID2223, AID489010, AID492950]. The format is functional.

For another assay, the system named is INS1. Briefly: beta cell apoptosis inhibitors, cytokine rescue, dose response, luminescence, retest (AID 449756).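 Also: cell death triggered by IL-1 beta plus TNF-alpha plus IFN-gamma mixture; protective hits raise ATP signal compared with cytokine alone wells.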 The format is functional, cell-based. The settings on record: Rattus norvegicus.
In assay [5] the target is T3, Short transient receptor potential channel 4 (Mus musculus, UniProt Q9QUQ5).
T3 sequence (Q9QUQ5 whole entry): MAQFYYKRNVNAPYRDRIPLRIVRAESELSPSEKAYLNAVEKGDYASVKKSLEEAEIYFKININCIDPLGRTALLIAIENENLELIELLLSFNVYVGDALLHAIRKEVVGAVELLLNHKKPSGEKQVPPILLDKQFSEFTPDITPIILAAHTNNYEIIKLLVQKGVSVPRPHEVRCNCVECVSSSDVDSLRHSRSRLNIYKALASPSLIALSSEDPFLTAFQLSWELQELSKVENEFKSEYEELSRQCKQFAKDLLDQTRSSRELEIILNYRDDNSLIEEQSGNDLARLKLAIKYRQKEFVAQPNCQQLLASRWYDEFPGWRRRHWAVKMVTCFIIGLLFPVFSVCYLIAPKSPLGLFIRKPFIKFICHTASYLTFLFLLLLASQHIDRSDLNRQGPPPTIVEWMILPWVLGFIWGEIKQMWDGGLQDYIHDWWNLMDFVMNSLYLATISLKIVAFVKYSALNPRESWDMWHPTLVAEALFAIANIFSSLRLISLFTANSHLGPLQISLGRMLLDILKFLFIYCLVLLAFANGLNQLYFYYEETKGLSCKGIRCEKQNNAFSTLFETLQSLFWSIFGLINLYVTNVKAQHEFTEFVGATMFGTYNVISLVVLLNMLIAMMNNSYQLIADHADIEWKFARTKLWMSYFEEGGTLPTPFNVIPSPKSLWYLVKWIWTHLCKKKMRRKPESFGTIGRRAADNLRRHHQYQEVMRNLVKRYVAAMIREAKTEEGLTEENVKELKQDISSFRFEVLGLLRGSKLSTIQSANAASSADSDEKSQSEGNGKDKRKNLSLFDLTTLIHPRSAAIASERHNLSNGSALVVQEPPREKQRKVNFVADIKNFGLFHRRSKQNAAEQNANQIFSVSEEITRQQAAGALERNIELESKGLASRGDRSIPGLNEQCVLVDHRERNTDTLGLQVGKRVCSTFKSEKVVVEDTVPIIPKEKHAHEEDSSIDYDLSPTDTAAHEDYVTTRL
In words: TRPC4 inhibition under acetylcholine activation, SAR follow-up, cell-based, acetylcholine stimulus, HEK293 TRPC4, Fluo-4 (AID 492996). The format is functional.

Activity calls are given as the source filed them. Unless noted, the rule behind the calls is not given here.

Keap1/Nrf2, sequence (Q16236 whole entry): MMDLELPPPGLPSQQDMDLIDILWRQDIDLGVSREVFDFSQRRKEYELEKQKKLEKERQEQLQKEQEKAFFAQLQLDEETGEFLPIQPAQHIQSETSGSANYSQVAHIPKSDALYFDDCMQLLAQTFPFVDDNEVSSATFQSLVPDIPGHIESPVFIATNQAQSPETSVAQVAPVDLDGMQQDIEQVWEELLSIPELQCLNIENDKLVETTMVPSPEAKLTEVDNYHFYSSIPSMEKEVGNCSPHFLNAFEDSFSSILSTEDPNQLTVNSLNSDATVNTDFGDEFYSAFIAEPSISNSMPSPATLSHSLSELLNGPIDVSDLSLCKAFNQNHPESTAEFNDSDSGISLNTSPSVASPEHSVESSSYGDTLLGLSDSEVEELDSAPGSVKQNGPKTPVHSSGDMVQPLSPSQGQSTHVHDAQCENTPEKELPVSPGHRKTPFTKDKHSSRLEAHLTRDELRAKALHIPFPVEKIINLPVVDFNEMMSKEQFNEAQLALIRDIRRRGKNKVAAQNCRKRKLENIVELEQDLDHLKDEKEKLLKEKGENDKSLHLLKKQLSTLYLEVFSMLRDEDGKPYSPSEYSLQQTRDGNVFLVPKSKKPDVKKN
Keap1/Nrf2, sequence (Q14145 whole entry): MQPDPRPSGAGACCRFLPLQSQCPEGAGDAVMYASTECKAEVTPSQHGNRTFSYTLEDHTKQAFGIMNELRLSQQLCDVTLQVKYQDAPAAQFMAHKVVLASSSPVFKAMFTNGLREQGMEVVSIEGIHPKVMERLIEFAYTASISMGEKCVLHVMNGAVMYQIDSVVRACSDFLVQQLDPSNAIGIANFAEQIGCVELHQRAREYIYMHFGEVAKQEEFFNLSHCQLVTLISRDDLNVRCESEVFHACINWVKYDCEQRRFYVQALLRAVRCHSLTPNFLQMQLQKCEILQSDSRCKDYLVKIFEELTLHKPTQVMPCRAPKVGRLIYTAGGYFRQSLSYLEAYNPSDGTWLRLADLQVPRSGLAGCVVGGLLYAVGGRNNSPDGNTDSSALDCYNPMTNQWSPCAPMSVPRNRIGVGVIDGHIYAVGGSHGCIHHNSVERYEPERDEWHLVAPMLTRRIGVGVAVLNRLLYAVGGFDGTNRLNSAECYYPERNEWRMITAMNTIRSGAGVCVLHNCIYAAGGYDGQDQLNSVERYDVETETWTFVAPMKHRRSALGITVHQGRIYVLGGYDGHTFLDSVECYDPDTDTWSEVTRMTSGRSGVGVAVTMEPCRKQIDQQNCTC

The IC50 is the concentration that gives 50% inhibition. What is called CC50 is the concentration at which the toxic effect on the cells reaches its halfway point. As for `Cc1nnc(NC(=O)CSc2nccn2-c2cccc(C)c2C)s1`, the results for the IC50 in the assay with MDCK [1] and in the assay on MDCK [3] were 10.4 µM (active) and 5.1 µM (active), respectively. Further, the CC50 in the assay on Vero and in the assay with MDCK [2] was > 40 µM (active) each time.
By AC50 is commonly meant the concentration giving half of the maximal activity seen. In general, EC50 refers to the concentration at which the effect is half-maximal. As to `Cc1ccc(S(=O)(=O)Nc2ccc(O)c3ccccc23)c(C)c1`, the figures for the AC50 (in [4]; on Keap1/Nrf2; with INS1) were 0.132 µM (active), > 52 µM (inactive) and 5.61 µM (active), respectively. Besides, the half-maximal effective concentration (EC50) at Protein RecA is 0.0702 µM (active).
As for `Cc1cc(N2CCN(C)CC2)nc2ccccc12`, the IC50 in assay [5] was 31.7 µM (active).
